The source of these data is patent US9340554B2, “IRAK inhibitors and uses thereof” (Nimbus Iris, Inc., priority 2011, dated 2016).

A word on the IC50: it is the concentration needed to halve the response being measured.

This assay has as its target T1, IRAK4 (Homo sapiens, UniProt Q9NWZ3).
T1 construct: purchased CARNA Bioscience 09-145
T1 sequence (Q9NWZ3 1-460): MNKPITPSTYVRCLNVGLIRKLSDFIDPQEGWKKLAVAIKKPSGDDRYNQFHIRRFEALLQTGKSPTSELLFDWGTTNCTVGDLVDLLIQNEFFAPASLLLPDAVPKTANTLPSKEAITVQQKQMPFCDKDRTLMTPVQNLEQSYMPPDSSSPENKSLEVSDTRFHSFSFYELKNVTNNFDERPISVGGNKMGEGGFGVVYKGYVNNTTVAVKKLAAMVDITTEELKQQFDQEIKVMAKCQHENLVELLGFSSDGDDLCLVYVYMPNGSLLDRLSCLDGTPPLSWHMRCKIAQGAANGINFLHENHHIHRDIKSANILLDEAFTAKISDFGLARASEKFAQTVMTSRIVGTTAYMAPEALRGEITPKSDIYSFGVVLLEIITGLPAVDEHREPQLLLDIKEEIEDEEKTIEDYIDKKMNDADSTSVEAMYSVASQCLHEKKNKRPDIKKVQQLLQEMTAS
The experiment in a line: IRAK-4 activity inhibition assay (Caliper, Peptide 8, 37 μM ATP). Format: biochemical. Particulars: 3.5 nM IRAK4, 1.5 μM Peptide 8, 37 μM ATP, 28° C. 40 minutes; read-out: IRAK-4 activity inhibition IC50. The procedure: A 1× kinase base buffer was prepared from 50 mM HEPES, pH 7.5 and 0.0015% Brij-35. A stop buffer was prepared from 100 mM HEPES, pH 7.5, 0.015% Brij-35, 0.2% Coating Reagent #3, and 50 mM EDTA.
Test compound was diluted to 50× of the final desired highest inhibitor concentration in reaction by 100% DMSO. 100 ul of this compound dilution was transferred to a well in a 96-well plate.
Test compound was serially diluted by transferring 30 μl to 60 μl of 100% DMSO in the next well and so forth for a total of 10 concentrations. 100 μl of 100% DMSO was added to two empty wells for no compound control and no enzyme control in the same 96-well plate.
A new 96-well plate was marked as intermediate plate. 5 μl of compound serial dilution was transferred from source plate to the corresponding wells of the intermediate plate. 45 μl of 1× kinase base buffer (KB buffer) was added to each well of the intermediate plate. The intermediate plate was placed for 10 min on a shaker.
5 μl of each well was transferred from the 96-well intermediate plate to a 384-well plate in duplicates. […] A2 of the 96-well plate is transferred to A3 and A4 of the 384-well plate, and so on.
IRAK4 and DTT in 1× kinase base buffer was added.
Assay plate already contained 5 μl of compound in 10% DMSO. Added 10 μl of 2.5× enzyme solution to each well of the 384-well assay plate, except no enzyme control wells. […] Added 10 μl of 1× kinase base buffer to no enzyme control wells in the assay plate. Incubated at room temperature for 10 min.
Added 10 μl of 2.5× peptide solution to each well of the 384-well assay plate. […] Incubated at 28° C. for 40 minutes. Added 25 μl of stop buffer to stop reaction. Collected data on Caliper.
Copied conversion % data from Caliper program. Converted conversion % values to percent inhibition values. Percent inhibition=(max−conversion %)/(max−min)*100, where “max” means the conversion % of DMSO control and “min” means the conversion % of no enzyme control.
The compound numbers correspond to the compound numbers in Table 1. […] “NA” stands for “not assayed.”
For `c1nc(N[C@H]2CC[C@H](N3CCC3)CC2)c2c3c(sc2n1)CCC3` [Compound I-158, N-[4-(azetidin-1-yl)cyclohexyl]-7-thia-9,11-diazatricyclo[6.4.0.0^[2,6]]dodeca-1(8),2(6),9,11-tetraen-12-amine], the IC50 was under 5 µM.

Consider `OC1CCCC(Nc2ncnc3sc4c(c23)CCCC4)C1` (stereo not drawn) [Compound I-5, 3-((5,6,7,8-tetrahydrobenzo[4,5]thieno[2,3-d]pyrimidin-4-yl)amino)cyclohexanol], for which the IC50 is under 5 µM.

For the molecule `CN(Cc1ccncc1)[C@H]1CC[C@H](Nc2ncnc3sc4c(c23)CCC4)CC1` [Compound I-162], the IC50 was under 5 µM. With `O=C(O)[C@@H]1CC[C@H](Nc2ncnc3sc4c(c23)CCC4)C1` [Compound I-6], the IC50 is 20 to 50 µM. Regarding `Cc1sc2ncnc(N[C@H]3CC[C@H](N)CC3)c2c1C` [Compound I-57, trans-N^1-(5,6-dimethylthieno[2,3-d]pyrimidin-4-yl)cyclohexane-1,4-diamine], the IC50 was under 5 µM.

As for `CCC1CCc2c(sc3ncnc(N4CCC(C(N)=O)CC4)c23)C1` (stereo not drawn) [Compound I-17], the IC50 is 5 to 20 µM.

For `N[C@H]1CC[C@H](Nc2ncnc3sc4c(c23)CCCC4)CC1` [Compound I-49, trans-N^1-(5,6,7,8-tetrahydrobenzo[4,5]thieno[2,3-d]pyrimidin-4-yl)cyclohexane-1,4-diamine], the IC50 is under 5 µM. The result for `c1nc(OCC2CCNCC2)c2c3c(sc2n1)CCC3` [Compound I-60] reads 5 to 20 µM; that for `CCN[C@H]1CC[C@H](Nc2ncnc3sc4c(c23)CCC4)CC1` [Compound I-70], under 5 µM; that for `CN(C)[C@H]1CC[C@H](Oc2ncnc3sc4c(c23)CCC4)CC1` [Compound I-67, trans-4-((6,7-dihydro-5H-cyclopenta[4,5]thieno[2,3-d]pyrimidin-4-yl)oxy)-N,N-dimethylcyclohexanamine], under 5 µM. For `COc1ccc(OCCN2CCN(c3ncnc4sc5c(c34)CCCC5)CC2)cc1` [Compound I-27], the IC50 was in the range of 5 to 20 µM.

Turning to `CN(C(=O)Cc1cccc(Cl)c1)[C@H]1CC[C@H](Nc2ncnc3sc4c(c23)CCC4)CC1` [Compound I-102, 2-(3-chlorophenyl)-N-methyl-N-[4-([7-thia-9,11-diazatricyclo[6.4.0.0^[2,6]]dodeca-1(8),2(6),9,11-tetraen-12-yl]amino)cyclohexyl]acetamide], the IC50 lay in the range of 20 to 50 µM. On to `CN(Cc1ccncc1Cl)[C@H]1CC[C@H](Nc2ncnc3sc4c(c23)CCC4)CC1` [Compound I-100, 1-N-[(3-chloropyridin-4-yl)methyl]-1-N-methyl-4-N-[7-thia-9,11-diazatricyclo[6.4.0.0^[2,6]]dodeca-1(8),2(6),9,11-tetraen-12-yl]cyclohexane-1,4-diamine], for which the IC50 is under 5 µM.

Consider `c1nc(N[C@H]2CC[C@H](N3CCOCC3)CC2)c2c3c(sc2n1)CCC3` [Compound I-149, N-((1r,4r)-4-morpholinocyclohexyl)-6,7-dihydro-5H-cyclopenta[4,5]thieno[2,3-d]pyrimidin-4-amine], for which the IC50 was under 5 µM. Take `Cc1sc2ncnc(N[C@H]3CC[C@H](O)CC3)c2c1C` [Compound I-19, trans-4-((5,6-dimethylthieno[2,3-d]pyrimidin-4-yl)amino)cyclohexanol]: the half-maximal inhibitory concentration (IC50) was 5 to 20 µM. With `CN(C)[C@H]1CC[C@H](Nc2ncnc3sc4c(c23)CC(C)(C)CC4)CC1` [Compound I-40, trans-N^1-(6,6-dimethyl-5,6,7,8-tetrahydrobenzo[4,5]thieno[2,3-d]pyrimidin-4-yl)-N^4,N^4-dimethylcyclohexane-1,4-diamine] the figure was under 5 µM; with `Cc1sc2ncnc(N3CCC(C(=O)NCCc4nnc5ccccn45)CC3)c2c1C` [Compound I-29], 5 to 20 µM; with `c1ccc(CCCN[C@H]2CC[C@H](Nc3ncnc4sc5c(c34)CCC5)CC2)cc1` [Compound I-119, (1r,4r)-N1-(6,7-dihydro-5H-cyclopenta[4,5]thieno[2,3-d]pyrimidin-4-yl)-N4-(3-phenylpropyl)cyclohexane-1,4-diamine], under 5 µM.

In the case of `CC1CCc2sc3ncnc(NC4CCCC(O)C4)c3c2C1` (mixture of isomers) [Compound I-35, 3-((6-methyl-5,6,7,8-tetrahydrobenzo[4,5]thieno[2,3-d]pyrimidin-4-yl)amino)cyclohexanol], the IC50 is 5 to 20 µM. As for `CCN(Cc1ccccc1)[C@H]1CC[C@H](Oc2ncnc3sc4c(c23)CCC4)CC1` [Compound I-117, (1r,4r)-N-benzyl-4-((6,7-dihydro-5H-cyclopenta[4,5]thieno[2,3-d]pyrimidin-4-yl)oxy)-N-ethylcyclohexanamine], the IC50 was under 5 µM. For `CN(Cc1c[nH]c2ccccc12)[C@H]1CC[C@H](Nc2ncnc3sc4c(c23)CCC4)CC1` [Compound I-110], the IC50 was under 5 µM. For `CCOc1ccccc1N1CCN(c2ncnc3sc4c(c23)CCC4)CC1` [Compound I-30], the half-maximal inhibitory concentration (IC50) is over 50 µM. As to `CC1CCc2sc3ncnc(N4CCC(C(N)=O)CC4)c3c2C1` (stereo not drawn) [Compound I-36], the IC50 was in the range of 5 to 20 µM. For the molecule `CN[C@H]1CC[C@H](Oc2ncnc3sc4c(c23)CCC4)CC1` [Compound I-66, trans-4-((6,7-dihydro-5H-cyclopenta[4,5]thieno[2,3-d]pyrimidin-4-yl)oxy)-N-methylcyclohexanamine], the IC50 is under 5 µM. For `CCC1CCc2c(sc3ncnc(N[C@H]4CC[C@H](NC)CC4)c23)C1` (stereo partly drawn) [Compound I-58, trans-N1-(7-ethyl-5,6,7,8-tetrahydrobenzo[4,5]thieno[2,3-d]pyrimidin-4-yl)-N4-methylcyclohexane-1,4-diamine], the IC50 is under 5 µM. Take `CN(Cc1ccc(C(N)=O)cc1)[C@H]1CC[C@H](Nc2ncnc3sc4c(c23)CCC4)CC1` [Compound I-164, 4-([methyl[4-([7-thia-9,11-diazatricyclo[6.4.0.0^[2,6]]dodeca-1(8),2(6),9,11-tetraen-12-yl]amino)cyclohexyl]amino]methyl)benzamide]: the IC50 was under 5 µM. For the molecule `O=C(NCC(F)(F)F)C1CCN(c2ncnc3sc4c(c23)CCC4)CC1` [Compound I-33], the IC50 was 20 to 50 µM. With `O=C(CN[C@H]1CC[C@H](Oc2ncnc3sc4c(c23)CCC4)CC1)N1CCCC1` [Compound I-135, trans-1-(pyrrolidin-1-yl)-2-[(4-[7-thia-9,11-diazatricyclo[6.4.0.0[2,6]]dodeca-1(8),2(6),9,11-tetraen-12-yloxy]cyclohexyl)amino]ethan-1-one] the figure was under 5 µM; with `CN(CC(=O)N1CCCCC1)[C@H]1CC[C@H](Nc2ncnc3sc4c(c23)CCC4)CC1` [Compound I-129, 2-[methyl[4-([7-thia-9,11-diazatricyclo[6.4.0.0[2,6]]dodeca-1(12),2(6),8,10-tetraen-12-yl]amino)cyclohexyl]amino]-1-(piperidin-1-yl)ethan-1-one], under 5 µM. For `C[C@@H]1CCc2sc3ncnc(N[C@H]4CC[C@H](N)CC4)c3c2C1` [Compound I-48, trans-N^1-((R)-6-methyl-5,6,7,8-tetrahydrobenzo[4,5]thieno[2,3-d]pyrimidin-4-yl)cyclohexane-1,4-diamine], the IC50 was under 5 µM.
